Consider one compound from patent publication US9358191B2, “Deodorant composition” (priority 2002, dated 2016).

The nature of this experiment: Deodorizing effect on malodor gas, closed circulation system. To be noted: 1 mL on absorbent cotton, 2 hours of working. How it is done: Into a 4 L odorless bag, 4 L of air was included by means of an air pump. Each malodor gas (ammonia, trimethylamine, hydrogen sulfide, or methyl mercaptan) was injected thereinto by an injection syringe to regulate a gas concentration. The bag was set at a test apparatus of closed circulation system fitted with an air pump and the air pump was worked at an air amount of about 1000 mL/minute. One milliliter of the above deodorant composition was supported on an absorbent cotton (0.2 g) and the cotton was set at the discharging side of the air pump. After 2 hours of working, the remaining amount of the malodor gas in the system was measured using a dedicated gas detecting tube (Gastech Corporation) and a deodorization rate was calculated according to the following expression.
As a comparative example, an absorbent cotton impregnated with 1 mL of a 20 mM aqueous solution of gallic acid was set at the discharging side of the air pump, instead of the absorbent cotton on which the above deodorant composition was supported. Then, the test was conducted similarly and the deodorization rate was calculated.
Deodorization rate (%)=100×{1−(A/B)}
In the above expression, A means the measured concentration of the malodor components and B means the concentration of the malodor components measured in the control. The control is the case that an absorbent cotton was impregnated with 1 mL of water instead of 1 mL of the above deodorant composition.

Regarding `O=C(O)c1cc(O)c(O)c(O)c1` [Gallic acid aqueous solution, gallic acid], the Deodorization rate by setting is: (Ammonia, initial concentration 60 ppm) 85.0%; (Hydrogen sulfide, initial concentration 120 ppm) 5.0%; (Methyl mercaptan, initial concentration 100 ppm) 0%; (Trimethylamine, initial concentration 130 ppm) 70.0%.
